Experimental data from patent US20170304388A1, “NEW INDICATION OF CARDIOVASCULAR DRUGS FOR PREPARATION OF CANCER INHIBITION PHARMACEUTICAL COMPOSITION” (LAUNX BIOMEDICAL CO., LTD., priority 2014, published 2017).
Where a name gives a salt, the structure may show the parent alone.

Columns and labels:
Type in all cases: cell-based
[1] = tested on: A375 (Amelanotic Melanoma); assay: Cell viability analysis (WST-1), A375; conditions: Homo sapiens, A-375, 72 h, Table 3, drug 10 μM, WST-1, OD450 nm, lower viability = better inhibition, read-out: survival rate (viability) of cancer cells, A375
[2] = tested on: HCT116 (Colorectal Carcinoma); assay: Cell viability analysis (WST-1), HCT116; conditions: Homo sapiens, HCT-116, 72 h, Table 3, drug 10 μM, WST-1, OD450 nm, read-out: survival rate (viability) of cancer cells, HCT116 (WT)
[3] = tested on: HepG2 (Hepatocellular Carcinoma); assay: Cell viability analysis (WST-1), HepG2; conditions: Homo sapiens, HepG2, 72 h, Table 3, drug 10 μM, WST-1, OD450 nm, read-out: survival rate (viability) of cancer cells, HepG2
[4] = tested on: HeLa (Cervix Adenocarcinoma); assay: Cell viability analysis (WST-1), HeLa; conditions: Homo sapiens, HeLa, 72 h, Table 3, drug 10 μM, WST-1, OD450 nm, read-out: survival rate (viability) of cancer cells, HeLa
[5] = tested on: AGS (Gastric Adenocarcinoma); assay: Cell viability analysis (WST-1), AGS; conditions: 72 h, Table 3, drug 10 μM, WST-1, OD450 nm, read-out: survival rate (viability) of cancer cells, AGS
[6] = tested on: H1650 (Lung Adenocarcinoma); assay: Cell viability analysis (WST-1), H1650; conditions: Homo sapiens, NCI-H1650, 72 h, Table 3, drug 10 μM, WST-1, OD450 nm, read-out: survival rate (viability) of cancer cells, H1650
[7] = tested on: MKN-45 (Gastric Adenocarcinoma); assay: Cell viability analysis (WST-1), MKN-45; conditions: Homo sapiens, MKN-45, 72 h, Table 3, drug 10 μM, WST-1, OD450 nm, read-out: survival rate (viability) of cancer cells, MKN-45
[8] = tested on: TSGH-8301 (Urinary Bladder Carcinoma); assay: Cell viability analysis (WST-1), TSGH-8301; conditions: 72 h, Table 3, drug 10 μM, WST-1, OD450 nm, read-out: survival rate (viability) of cancer cells, TSGH
[9] = tested on: MCF7 (Mammary Gland, Adenocarcinoma); assay: Cell viability analysis (WST-1), MCF7; conditions: Homo sapiens, MCF7, 72 h, Table 3, drug 10 μM, WST-1, OD450 nm, read-out: survival rate (viability) of cancer cells, MCF7
[10] = tested on: PC3 (Prostate Adenocarcinoma); assay: Cell viability analysis (WST-1), PC3; conditions: 72 h, Table 3, drug 10 μM, WST-1, OD450 nm, read-out: survival rate (viability) of cancer cells, PC3
[11] = tested on: HL-60 (Acute Promyelocytic Leukemia); assay: Cell viability analysis (WST-1), HL-60; conditions: Homo sapiens, HL-60; Table 3; drug 10 μM, 72 hours, WST-1, OD450 nm; read-out: survival rate (viability) of cancer cells, HL-60
[12] = tested on: A549 (Lung Adenocarcinoma); assay: Cell viability analysis (WST-1), A549; conditions: Homo sapiens, A549, 72 h, Table 3, drug 10 μM, WST-1, OD450 nm, read-out: survival rate (viability) of cancer cells, A549
[13] = tested on: LoVo (Colorectal Adenocarcinoma); assay: Cell viability analysis (WST-1), LoVo; conditions: Homo sapiens, LoVo, 72 h, Table 3, drug 10 μM, WST-1, OD450 nm, read-out: survival rate (viability) of cancer cells, LoVo
cancer cell lines = assay: Growth inhibitory effects on the panel of cancer cell lines; conditions: drug 10 μM, 72 hours; for Numbers of inhibitory effect on cancer cell line: count of cancer cell lines inhibited; for inhibition effect on different cancer cell lines (in words): WST-1

Compound | viability at 10 µM [1] [%] | viability at 10 µM [2] [%] | viability at 10 µM [3] [%] | viability at 10 µM [4] [%] | viability at 10 µM [5] [%] | viability at 10 µM [6] [%] | viability at 10 µM [7] [%] | viability at 10 µM [8] [%] | viability at 10 µM [9] [%] | viability at 10 µM [10] [%] | viability at 10 µM [11] [%] | viability at 10 µM [12] [%] | viability at 10 µM [13] [%] | Numbers of inhibitory effect on cancer cell line (cancer cell lines) | inhibition effect on different cancer cell lines (in words) (cancer cell lines)
CC(C)OC(=O)C(C)(C)Oc1ccc(C(=O)c2ccc(Cl)cc2)cc1 [Fenofibrate (Tricor, Trilipix), Fenofibrate] | 159 | 98.9 | 104 | 98.3 | 84.1 | 122 | 83.1 | 103 | 78.1 | 105 | 77.6 |  |  |  | 
CCC(NC(C)C)C(O)c1ccc(O)c(O)c1 (stereo not drawn) [Isoetharine Mesylate] | 97 | 96.1 | 76.5 | 81.6 | 96.6 | 91.7 | 91 | 88.3 | 103 | 71.6 |  | 76.7 | 100 | 0 | significant inhibition effect
Cc1cccc(Nc2ccccc2C(=O)O)c1C [Mefenamic acid] | 78.7 | 85.9 |  | 76.1 | 71.1 | 73.9 | 115 | 118 | 95.3 | 103 | 113 | 116 | 83.3 | 0 | significant inhibition effect
O=C(O)/C=C/c1ccc(Cn2ccnc2)cc1 [Ozagrel] | 74.7 | 102 | 91.2 | 77.7 | 98.5 | 80.6 | 93.9 | 69.4 | 102 |  | 118 | 77.7 | 80.6 | 0 | significant inhibition effect
NCCCCCC(=O)O [Aminocaproic acid (Amicar), Aminocaproic acid] | 123 | 114 |  | 90.4 | 64.8 | 65.4 | 80.2 | 71.4 | 69.2 | 79.6 | 93 | 70.3 | 91.2 | 0 | 
